Measurements: PubChem BioAssay AID252 (DTP/NCI, 2004)
Where “and” joins values, the source holds several entries; their conditions need not be identical. Equal values may be shown once. Toxic doses and inconclusive results are not listed. The calls were made as follows: active = survival T/C of 150% or more; inactive = T/C below 125% in these data.

Tested on: BDF1 mice, intracerebral L1210 leukemia, survival T/C
Experiment: NCI In Vivo Anticancer Drug Screen. Data for tumor model L1210 Leukemia (intracerebral) in B6D2F1 (BDF1) mice
Details: higher = longer survival
Procedure, shortened: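 Survival measured in treated and vehicle-control tumour-bearing mice; value = T/C.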

[1] = endpoint: mean survival time, dose: 26.0 mg/kg/injection, schedule: Q01DX001 (ip), vehicle: carboxymethylcellulose (CMC)
[2] = endpoint: mean survival time, dose: 40.0 mg/kg/injection, schedule: Q01DX001 (ip), vehicle: carboxymethylcellulose (CMC)
[3] = endpoint: mean survival time, dose: 60.0 mg/kg/injection, schedule: Q01DX001 (ip), vehicle: carboxymethylcellulose (CMC)
[4] = endpoint: mean survival time, dose: 18.0 mg/kg/injection, schedule: Q01DX001 (ip), vehicle: carboxymethylcellulose (CMC)

Measured: T/C

O=c1n(CC2CO2)c(=O)n(CC2CO2)c(=O)n1CC1CO1 (stereo not given)
inactive: endpoint: median survival time, dose: 70.0 mg/kg/injection, schedule: Q01DX009 (ip), vehicle: saline 121 % of control | endpoint: median survival time, dose: 80.0 mg/kg/injection, schedule: Q01DX009 (ip), vehicle: saline 121 % of control | endpoint: median survival time, dose: 90.0 mg/kg/injection, schedule: Q01DX009 (ip), vehicle: saline 122 % of control
active: endpoint: median survival time, dose: 40.0 mg/kg/injection, schedule: Q01DX009 (ip), vehicle: saline 151 % of control

O=NN(CCCl)C(=O)N[C@H]1CCCC[C@@H]1Cl
active: endpoint: mean survival time, dose: 13.75 mg/kg/injection, schedule: Q01DX001 (oral), vehicle: other 190 % of control and 226 % of control and 230 % of control | endpoint: mean survival time, dose: 15.25 mg/kg/injection, schedule: Q01DX001 (ip), vehicle: other 158 % of control and 165 % of control and 216 % of control | endpoint: mean survival time, dose: 19.0 mg/kg/injection, schedule: Q01DX001 (ip), vehicle: carboxymethylcellulose (CMC) 152 % of control | endpoint: mean survival time, dose: 20.0 mg/kg/injection, schedule: Q01DX001 (ip), vehicle: other 175 % of control and 181 % of control | [1] 164 % of control and 221 % of control | endpoint: mean survival time, dose: 27.5 mg/kg/injection, schedule: Q01DX001 (oral), vehicle: other 315 % of control and 337 % of control and 442 % of control | endpoint: mean survival time, dose: 30.5 mg/kg/injection, schedule: Q01DX001 (ip), vehicle: carboxymethylcellulose (CMC) 163 % of control | endpoint: mean survival time, dose: 30.5 mg/kg/injection, schedule: Q01DX001 (ip), vehicle: other 278 % of control and 293 % of control and 361 % of control | [2] 228 % of control and 310 % of control | endpoint: mean survival time, dose: 41.0 mg/kg/injection, schedule: Q01DX001 (ip), vehicle: other 317 % of control and 391 % of control | endpoint: mean survival time, dose: 46.0 mg/kg/injection, schedule: Q01DX001 (ip), vehicle: carboxymethylcellulose (CMC) 284 % of control | endpoint: mean survival time, dose: 55.0 mg/kg/injection, schedule: Q01DX001 (oral), vehicle: other 184 % of control and 271 % of control and 351 % of control | [3] 297 % of control | endpoint: mean survival time, dose: 61.0 mg/kg/injection, schedule: Q01DX001 (ip), vehicle: carboxymethylcellulose (CMC) 274 % of control | endpoint: mean survival time, dose: 61.0 mg/kg/injection, schedule: Q01DX001 (ip), vehicle: other 178 % of control and 254 % of control | endpoint: mean survival time, dose: 83.0 mg/kg/injection, schedule: Q01DX001 (ip), vehicle: other 270 % of control and 419 % of control
inactive: endpoint: mean survival time, dose: 5.0 mg/kg/injection, schedule: Q01DX001 (ip), vehicle: other 102 % of control and 96 % of control | endpoint: mean survival time, dose: 10.0 mg/kg/injection, schedule: Q01DX001 (ip), vehicle: other 106 % of control and 113 % of control | endpoint: mean survival time, dose: 13.0 mg/kg/injection, schedule: Q01DX001 (ip), vehicle: carboxymethylcellulose (CMC) 120 % of control

O=NN(CCCl)C(=O)Nc1ccc(Cn2ccc(=O)[nH]c2=O)cc1
inactive: [4] 109 % of control | [1] 110 % of control | [2] 109 % of control | [3] 122 % of control | endpoint: mean survival time, dose: 90.0 mg/kg/injection, schedule: Q01DX001 (ip), vehicle: carboxymethylcellulose (CMC) 119 % of control

O=NN(CCO)C(=O)Nc1c[nH]c(=O)[nH]c1=O
inactive: endpoint: mean survival time, dose: 173.0 mg/kg/injection, schedule: Q01DX001 (ip), vehicle: carboxymethylcellulose (CMC) 100 % of control | endpoint: mean survival time, dose: 260.0 mg/kg/injection, schedule: Q01DX001 (ip), vehicle: carboxymethylcellulose (CMC) 102 % of control | endpoint: mean survival time, dose: 400.0 mg/kg/injection, schedule: Q01DX001 (ip), vehicle: carboxymethylcellulose (CMC) 106 % of control

O=NN(CCCl)C(=O)NC1CCSCC1
inactive: endpoint: mean survival time, dose: 3.0 mg/kg/injection, schedule: Q01DX001 (ip), vehicle: carboxymethylcellulose (CMC) 114 % of control | endpoint: mean survival time, dose: 27.0 mg/kg/injection, schedule: Q01DX001 (ip), vehicle: carboxymethylcellulose (CMC) 94 % of control | endpoint: mean survival time, dose: 32.0 mg/kg/injection, schedule: Q01DX001 (ip), vehicle: carboxymethylcellulose (CMC) 93 % of control
active: endpoint: mean survival time, dose: 5.0 mg/kg/injection, schedule: Q01DX001 (ip), vehicle: carboxymethylcellulose (CMC) 152 % of control and 154 % of control | endpoint: mean survival time, dose: 6.0 mg/kg/injection, schedule: Q01DX001 (ip), vehicle: carboxymethylcellulose (CMC) 161 % of control | endpoint: mean survival time, dose: 8.0 mg/kg/injection, schedule: Q01DX001 (ip), vehicle: carboxymethylcellulose (CMC) 203 % of control and 208 % of control | endpoint: mean survival time, dose: 9.0 mg/kg/injection, schedule: Q01DX001 (ip), vehicle: carboxymethylcellulose (CMC) 217 % of control | endpoint: mean survival time, dose: 12.0 mg/kg/injection, schedule: Q01DX001 (ip), vehicle: carboxymethylcellulose (CMC) 245 % of control and 316 % of control | endpoint: mean survival time, dose: 14.0 mg/kg/injection, schedule: Q01DX001 (ip), vehicle: carboxymethylcellulose (CMC) 286 % of control | [4] 230 % of control | endpoint: mean survival time, dose: 21.0 mg/kg/injection, schedule: Q01DX001 (ip), vehicle: carboxymethylcellulose (CMC) 155 % of control

O=NN(CCCl)C(=O)NC1Cc2ccccc2C1
inactive: endpoint: mean survival time, dose: 55.0 mg/kg/injection, schedule: Q01DX001 (ip), vehicle: other 116 % of control | endpoint: mean survival time, dose: 84.0 mg/kg/injection, schedule: Q01DX001 (ip), vehicle: other 123 % of control | endpoint: mean survival time, dose: 188.0 mg/kg/injection, schedule: Q01DX001 (ip), vehicle: other 94 % of control
